Each block holds one molecule with its values, some of them ahead of it.
How the values were obtained:
[1] = tested on: Tyrosine-protein kinase ABL1 (Homo sapiens), P00519 [T315I]; assay: Selectivity interaction (KinomeScan (DiscoverX)) EUB0000655a ABL1; conditions: at 10 µM
[2] = biological target: Receptor tyrosine-protein kinase erbB-4 (Homo sapiens, UniProt Q15303); assay: Selectivity interaction (KinomeScan (DiscoverX)) EUB0000655a ERBB4; conditions: at 10 µM
[3] = biological target: Dual specificity mitogen-activated protein kinase kinase 2 (Homo sapiens) (UniProt P36507); assay: Selectivity interaction (KinomeScan (DiscoverX)) EUB0001079a MAP2K2; conditions: at 1 µM
[4] = biological target: Ribosomal protein S6 kinase alpha-5 (Homo sapiens) (UniProt O75582); assay: Selectivity interaction (Millipore kinase profiler) EUB0000124b RPS6KA5; conditions: at 10 µM
[5] = biological target: Serine/threonine-protein kinase PAK 4 (Homo sapiens, UniProt O96013); assay: Selectivity interaction (SelectScreen profiling (Invitrogen)) EUB0000607a PAK4; conditions: at 2 µM
[6] = biological target: Serine/threonine-protein kinase 38-like (Homo sapiens) (UniProt Q9Y2H1); assay: Selectivity interaction (ActivX KiNativ screen (ex vivo kinase selectivity in human PBMCs)) EUB0001619a STK38L; assay type: cell-based; conditions: PBMC, at 1 µM
[7] = biological target: Maternal embryonic leucine zipper kinase (Homo sapiens) (UniProt Q14680); assay: Selectivity interaction (KinomeScan (DiscoverX)) EUB0001619a MELK; conditions: at 1 µM
[8] = biological target: MAP/microtubule affinity-regulating kinase 3 (Homo sapiens) (UniProt P27448); assay: Selectivity interaction (KinomeScan (DiscoverX)) EUB0001619a MARK3; conditions: at 1 µM
[9] = biological target: Serine/threonine-protein kinase VRK2 (Homo sapiens) (UniProt Q86Y07); assay: Selectivity interaction (KinomeScan (DiscoverX)) EUB0000045b VRK2
[10] = biological target: Mitogen-activated protein kinase 9 (Homo sapiens, UniProt P45984); assay: Selectivity interaction (KinomeScan (DiscoverX)) EUB0000045b MAPK9
[11] = biological target: RAC-beta serine/threonine-protein kinase (Homo sapiens) (UniProt P31751); assay: Selectivity interaction (Kinase panel (KiNativ target engagement assay in Jurkat cells)) EUB0001635a AKT2; assay type: cell-based; conditions: at 1 µM
[12] = Selectivity interaction (ActivX KiNativ screen (kinase selectivity in THP-1 cell lysates)) EUB0000639a STLK6; conditions: Selectivity number of off-targets 0; Selectivity number of targets 283; Source Knowledge https://pubmed.ncbi.nlm.nih.gov/28498658/; at 0.2 µM
[13] = biological target: Serine/threonine-protein kinase PLK2 (Homo sapiens, UniProt Q9NYY3)
[14] = biological target: T1, Serine/threonine-protein kinase Sgk2 (Homo sapiens) (UniProt Q9HBY8); assay: Selectivity interaction (ProQinase) EUB0000171b SGK2
T1 sequence (whole entry): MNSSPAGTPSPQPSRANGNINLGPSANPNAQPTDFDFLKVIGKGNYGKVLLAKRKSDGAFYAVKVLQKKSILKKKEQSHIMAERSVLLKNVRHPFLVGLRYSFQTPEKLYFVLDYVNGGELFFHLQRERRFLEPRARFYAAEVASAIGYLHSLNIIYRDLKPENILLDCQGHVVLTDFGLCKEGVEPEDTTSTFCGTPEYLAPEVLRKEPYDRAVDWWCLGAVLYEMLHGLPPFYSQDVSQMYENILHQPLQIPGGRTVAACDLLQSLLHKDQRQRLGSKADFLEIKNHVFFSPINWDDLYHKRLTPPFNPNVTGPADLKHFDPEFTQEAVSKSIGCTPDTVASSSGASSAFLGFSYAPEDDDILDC

[15] = biological target: T2, Serine/threonine-protein kinase TBK1 (Homo sapiens) (UniProt Q9UHD2); assay: Selectivity interaction (ProQinase) EUB0000171b TBK1
T2 sequence (whole entry): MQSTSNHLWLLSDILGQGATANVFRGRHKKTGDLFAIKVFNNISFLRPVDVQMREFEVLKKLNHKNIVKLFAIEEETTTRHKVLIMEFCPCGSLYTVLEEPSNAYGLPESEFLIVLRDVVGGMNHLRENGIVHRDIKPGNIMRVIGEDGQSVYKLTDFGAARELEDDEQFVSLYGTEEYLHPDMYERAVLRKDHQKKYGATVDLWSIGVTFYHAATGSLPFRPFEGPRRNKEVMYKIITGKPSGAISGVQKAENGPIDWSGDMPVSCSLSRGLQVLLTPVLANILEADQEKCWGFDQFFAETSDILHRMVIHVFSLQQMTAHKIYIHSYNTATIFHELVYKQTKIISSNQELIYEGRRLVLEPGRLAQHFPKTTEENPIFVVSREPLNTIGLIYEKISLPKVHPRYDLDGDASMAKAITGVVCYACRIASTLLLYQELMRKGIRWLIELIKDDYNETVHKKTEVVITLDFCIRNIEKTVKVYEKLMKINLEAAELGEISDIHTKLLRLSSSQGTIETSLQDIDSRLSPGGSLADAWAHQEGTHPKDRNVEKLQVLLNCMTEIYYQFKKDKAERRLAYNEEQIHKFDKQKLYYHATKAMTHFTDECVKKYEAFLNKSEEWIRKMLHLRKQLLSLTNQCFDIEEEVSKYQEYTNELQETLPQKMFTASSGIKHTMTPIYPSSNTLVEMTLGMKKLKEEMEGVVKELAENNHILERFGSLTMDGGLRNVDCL

[16] = biological target: Tyrosine-protein kinase JAK1 (Homo sapiens, UniProt P23458); assay: Selectivity interaction (KinomeScan (DiscoverX)) EUB0001049a JAK1; conditions: at 1 µM
[17] = biological target: Serine/threonine-protein kinase Nek6 (Homo sapiens) (UniProt Q9HC98); assay: Selectivity interaction (KinomeScan (DiscoverX)) EUB0000666a NEK6; conditions: at 10 µM
[18] = biological target: Citron Rho-interacting kinase (Homo sapiens) (UniProt O14578); assay: Selectivity interaction (KinomeScan (DiscoverX)) EUB0000666a CIT; conditions: at 10 µM

Sequence of Serine/threonine-protein kinase VRK2 (Homo sapiens) (Q86Y07 whole entry): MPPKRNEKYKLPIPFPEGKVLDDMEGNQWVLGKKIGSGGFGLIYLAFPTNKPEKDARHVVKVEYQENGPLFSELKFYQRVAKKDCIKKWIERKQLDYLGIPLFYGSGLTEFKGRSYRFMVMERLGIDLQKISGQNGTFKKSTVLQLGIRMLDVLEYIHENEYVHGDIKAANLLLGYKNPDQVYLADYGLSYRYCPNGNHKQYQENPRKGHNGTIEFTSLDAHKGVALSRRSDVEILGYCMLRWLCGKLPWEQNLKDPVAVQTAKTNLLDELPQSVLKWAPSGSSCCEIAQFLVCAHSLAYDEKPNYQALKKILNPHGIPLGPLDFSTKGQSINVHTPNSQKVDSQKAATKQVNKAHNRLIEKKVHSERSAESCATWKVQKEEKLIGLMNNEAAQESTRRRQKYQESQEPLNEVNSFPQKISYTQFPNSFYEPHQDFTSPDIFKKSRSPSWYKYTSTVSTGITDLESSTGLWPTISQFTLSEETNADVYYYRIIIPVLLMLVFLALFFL
Sequence of Mitogen-activated protein kinase 9 (P45984 whole entry, looked up): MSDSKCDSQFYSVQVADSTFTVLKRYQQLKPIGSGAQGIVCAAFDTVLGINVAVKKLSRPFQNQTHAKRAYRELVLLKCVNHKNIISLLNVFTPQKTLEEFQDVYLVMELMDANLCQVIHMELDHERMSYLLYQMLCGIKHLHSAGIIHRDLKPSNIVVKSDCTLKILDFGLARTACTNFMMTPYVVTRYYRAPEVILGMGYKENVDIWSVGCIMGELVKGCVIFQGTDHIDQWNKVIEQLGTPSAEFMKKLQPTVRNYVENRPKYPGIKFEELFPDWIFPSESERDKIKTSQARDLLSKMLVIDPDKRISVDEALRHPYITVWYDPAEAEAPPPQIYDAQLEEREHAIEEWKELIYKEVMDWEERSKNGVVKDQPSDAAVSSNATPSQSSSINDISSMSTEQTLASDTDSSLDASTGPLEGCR
Sequence of Tyrosine-protein kinase JAK1 (P23458 whole entry): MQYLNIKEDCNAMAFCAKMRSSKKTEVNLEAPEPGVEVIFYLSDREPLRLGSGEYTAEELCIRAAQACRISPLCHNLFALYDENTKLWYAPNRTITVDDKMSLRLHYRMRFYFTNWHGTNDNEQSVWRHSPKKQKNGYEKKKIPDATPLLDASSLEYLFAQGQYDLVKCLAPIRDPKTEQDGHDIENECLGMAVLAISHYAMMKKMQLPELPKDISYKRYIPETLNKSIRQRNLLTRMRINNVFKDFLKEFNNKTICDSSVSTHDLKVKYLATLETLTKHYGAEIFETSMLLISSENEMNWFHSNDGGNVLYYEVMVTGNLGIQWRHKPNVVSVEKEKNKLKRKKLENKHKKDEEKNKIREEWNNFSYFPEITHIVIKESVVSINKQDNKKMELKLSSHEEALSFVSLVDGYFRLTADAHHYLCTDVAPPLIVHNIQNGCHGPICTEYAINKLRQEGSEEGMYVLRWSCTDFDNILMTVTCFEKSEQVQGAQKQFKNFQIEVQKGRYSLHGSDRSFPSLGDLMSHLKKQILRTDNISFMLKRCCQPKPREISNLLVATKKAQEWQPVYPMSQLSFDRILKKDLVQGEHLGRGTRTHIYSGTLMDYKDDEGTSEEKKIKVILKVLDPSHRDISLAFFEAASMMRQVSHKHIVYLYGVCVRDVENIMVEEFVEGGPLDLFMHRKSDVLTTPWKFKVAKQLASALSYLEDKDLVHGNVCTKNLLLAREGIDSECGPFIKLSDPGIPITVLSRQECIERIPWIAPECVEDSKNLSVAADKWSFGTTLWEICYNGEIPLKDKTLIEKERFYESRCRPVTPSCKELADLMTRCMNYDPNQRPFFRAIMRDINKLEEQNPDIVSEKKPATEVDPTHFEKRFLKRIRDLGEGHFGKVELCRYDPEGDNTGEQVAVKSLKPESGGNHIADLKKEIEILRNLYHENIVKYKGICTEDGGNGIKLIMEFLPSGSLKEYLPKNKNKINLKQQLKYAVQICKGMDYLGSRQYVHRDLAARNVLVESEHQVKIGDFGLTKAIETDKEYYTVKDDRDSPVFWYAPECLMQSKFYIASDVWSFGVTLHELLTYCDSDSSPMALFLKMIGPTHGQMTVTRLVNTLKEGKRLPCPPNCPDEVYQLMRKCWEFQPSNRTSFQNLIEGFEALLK
Sequence of RAC-beta serine/threonine-protein kinase (Homo sapiens) (P31751 whole entry): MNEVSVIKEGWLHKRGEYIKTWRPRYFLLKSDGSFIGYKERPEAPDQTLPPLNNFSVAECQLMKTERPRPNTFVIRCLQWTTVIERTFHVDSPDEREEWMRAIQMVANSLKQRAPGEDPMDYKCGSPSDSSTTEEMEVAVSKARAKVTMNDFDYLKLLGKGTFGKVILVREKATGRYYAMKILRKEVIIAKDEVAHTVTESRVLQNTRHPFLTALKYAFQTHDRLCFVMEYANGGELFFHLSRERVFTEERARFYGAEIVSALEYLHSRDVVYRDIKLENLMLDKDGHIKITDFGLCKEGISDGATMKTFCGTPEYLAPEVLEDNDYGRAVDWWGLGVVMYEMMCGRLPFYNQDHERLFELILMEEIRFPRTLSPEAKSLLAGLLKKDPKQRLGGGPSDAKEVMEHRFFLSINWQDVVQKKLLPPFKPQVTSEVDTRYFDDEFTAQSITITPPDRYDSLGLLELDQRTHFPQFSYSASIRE
Sequence of Serine/threonine-protein kinase PLK2 (Q9NYY3 whole entry): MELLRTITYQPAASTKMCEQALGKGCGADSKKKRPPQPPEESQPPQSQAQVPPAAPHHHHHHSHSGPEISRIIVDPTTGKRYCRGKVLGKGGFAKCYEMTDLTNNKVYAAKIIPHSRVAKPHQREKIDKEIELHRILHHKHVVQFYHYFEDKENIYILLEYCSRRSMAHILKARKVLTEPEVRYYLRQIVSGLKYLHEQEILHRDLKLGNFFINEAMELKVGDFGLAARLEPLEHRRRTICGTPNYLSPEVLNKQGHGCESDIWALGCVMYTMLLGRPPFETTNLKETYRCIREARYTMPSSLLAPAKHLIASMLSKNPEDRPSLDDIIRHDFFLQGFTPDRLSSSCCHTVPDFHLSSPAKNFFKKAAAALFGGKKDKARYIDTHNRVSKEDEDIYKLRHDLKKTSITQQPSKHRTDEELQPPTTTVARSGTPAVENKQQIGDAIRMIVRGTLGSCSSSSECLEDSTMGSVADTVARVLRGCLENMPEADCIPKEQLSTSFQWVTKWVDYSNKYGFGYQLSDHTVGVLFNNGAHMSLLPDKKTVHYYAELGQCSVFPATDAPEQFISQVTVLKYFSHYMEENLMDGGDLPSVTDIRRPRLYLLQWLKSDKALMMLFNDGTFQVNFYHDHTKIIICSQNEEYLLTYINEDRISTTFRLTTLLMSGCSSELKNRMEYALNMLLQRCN
Sequence of MAP/microtubule affinity-regulating kinase 3 (Homo sapiens) (P27448 whole entry, looked up): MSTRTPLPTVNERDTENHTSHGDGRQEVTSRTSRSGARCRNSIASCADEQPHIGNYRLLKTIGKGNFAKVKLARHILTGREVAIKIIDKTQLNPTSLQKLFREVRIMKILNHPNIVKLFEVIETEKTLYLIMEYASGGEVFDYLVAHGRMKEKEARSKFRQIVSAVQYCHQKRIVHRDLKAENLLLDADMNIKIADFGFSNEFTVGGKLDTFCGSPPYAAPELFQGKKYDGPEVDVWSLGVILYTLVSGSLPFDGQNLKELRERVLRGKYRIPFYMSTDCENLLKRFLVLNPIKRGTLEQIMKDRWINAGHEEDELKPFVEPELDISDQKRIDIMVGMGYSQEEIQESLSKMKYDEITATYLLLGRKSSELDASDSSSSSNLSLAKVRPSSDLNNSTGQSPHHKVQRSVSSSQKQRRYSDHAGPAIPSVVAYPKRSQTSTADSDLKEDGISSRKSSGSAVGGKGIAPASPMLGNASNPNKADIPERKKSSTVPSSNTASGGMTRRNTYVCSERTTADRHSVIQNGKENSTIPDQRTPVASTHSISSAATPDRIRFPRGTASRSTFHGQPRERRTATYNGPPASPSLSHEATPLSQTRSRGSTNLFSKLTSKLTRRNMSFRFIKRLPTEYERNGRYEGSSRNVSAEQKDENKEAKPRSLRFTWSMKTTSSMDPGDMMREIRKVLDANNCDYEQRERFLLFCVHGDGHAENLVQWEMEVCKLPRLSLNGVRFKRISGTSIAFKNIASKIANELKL
Sequence of Serine/threonine-protein kinase Nek6 (Homo sapiens) (Q9HC98 whole entry): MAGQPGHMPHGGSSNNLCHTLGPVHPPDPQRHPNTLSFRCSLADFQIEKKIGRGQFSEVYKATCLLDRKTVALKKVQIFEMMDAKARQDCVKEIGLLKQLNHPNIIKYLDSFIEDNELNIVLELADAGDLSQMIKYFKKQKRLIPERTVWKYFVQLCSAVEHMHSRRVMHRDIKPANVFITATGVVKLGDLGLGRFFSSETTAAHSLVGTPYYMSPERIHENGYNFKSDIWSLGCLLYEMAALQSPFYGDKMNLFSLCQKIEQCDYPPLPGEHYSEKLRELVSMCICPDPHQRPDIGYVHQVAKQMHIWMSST
Sequence of Maternal embryonic leucine zipper kinase (Homo sapiens) (Q14680 whole entry, looked up): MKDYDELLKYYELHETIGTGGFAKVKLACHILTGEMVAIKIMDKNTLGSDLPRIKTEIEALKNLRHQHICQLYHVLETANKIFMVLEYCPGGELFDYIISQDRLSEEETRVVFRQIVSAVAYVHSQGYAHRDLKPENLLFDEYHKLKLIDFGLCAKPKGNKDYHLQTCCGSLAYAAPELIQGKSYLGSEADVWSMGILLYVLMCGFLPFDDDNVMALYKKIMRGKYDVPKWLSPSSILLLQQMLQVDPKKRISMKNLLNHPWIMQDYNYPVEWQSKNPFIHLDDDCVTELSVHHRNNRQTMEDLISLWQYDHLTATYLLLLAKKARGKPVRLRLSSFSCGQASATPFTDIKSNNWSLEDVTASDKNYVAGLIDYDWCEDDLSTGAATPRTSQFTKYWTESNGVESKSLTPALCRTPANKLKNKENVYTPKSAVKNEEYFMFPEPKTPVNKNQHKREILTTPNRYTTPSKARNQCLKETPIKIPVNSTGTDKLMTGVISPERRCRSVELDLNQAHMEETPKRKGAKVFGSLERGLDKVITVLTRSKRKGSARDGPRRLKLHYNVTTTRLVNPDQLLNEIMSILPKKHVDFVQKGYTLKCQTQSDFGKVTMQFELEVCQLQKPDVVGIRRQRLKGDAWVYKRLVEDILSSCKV

SMILES: CN(C)CCOc1ccc(-c2nc(-c3ccncc3)c(-c3ccc4c(c3)CC/C4=N\O)[nH]2)cc1
- % of control [1]: 5.4%
- % of control [2]: 73%

SMILES: Nc1cnc(N2CCc3cc(S(=O)(=O)Nc4c(F)cc(Cl)cc4F)cc(N4CCCC4=O)c32)nc1 [TP-020n]
- % of control [3]: 92%

- % of control [4]: 111%
SMILES: CC(=O)Nc1cccc(-n2c(=O)n(C3CC3)c(=O)c3c(Nc4ccc(I)cc4F)n(C)c(=O)c(C)c32)c1

SMILES: CNC(=O)Nc1ccc(-c2nc(N3CC4CCC(C3)O4)c3cnn(C4CCC5(CC4)OCCO5)c3n2)cc1
- % of inhibition [5]: 13%

SMILES: N#Cc1cccc(-c2c[nH]c3ncnc(N4CCOCC4)c23)c1
- % of inhibition [6]: 22%
- % of control [7]: 69%
- % of control [8]: 100%

SMILES: C=CC(=O)Nc1cc(-n2c(=O)ccc3cnc4ccc(-c5ccc(NS(C)(=O)=O)cc5)cc4c32)ccc1C
- % of control ([9]; at 1 µM): 100%
- % of control ([9]; at 10 µM): 86%
- % of control ([10]; at 1 µM): 100%
- % of control ([10]; at 10 µM): 24%

SMILES: C=CC(=O)Nc1ccc(C(=O)Nc2[nH]nc3c2CN(C(=O)N[C@H](CN(C)C)c2ccccc2)C3(C)C)cc1
- % of engagement [11]: -11.1%

SMILES: CC[C@@H]1[C@H](F)C(=O)N[C@@H]1COc1nccc2cc(C(N)=O)c(OC)cc12 [ZIMLOVISERTIB]
- % of inhibition [12]: 7.4%

- IC50 [13]: > 10 µM
SMILES: CCc1cccc(CC)c1NC(=O)c1nn(C)c2c1CCc1cnc(Nc3ccc(C(=O)NC4CCN(C)CC4)cc3OC(F)(F)F)nc1-2

- % of control ([14]; at 1 µM): 93%
- % of control ([14]; at 5 µM): 71%
- % of control ([15]; at 1 µM): 84%
- % of control ([15]; at 5 µM): 69%
SMILES: C=CC(=O)Nc1cccc(C(=O)Nc2ccc(Nc3cc(-c4[nH]c(SC)nc4C)ccn3)cc2)c1

SMILES: COc1cc(Nc2nc(C)cc(-c3cnn4nc(OC)ccc34)n2)cc(C(F)(F)F)c1
- % of control [16]: 100%

SMILES: O=C(NOC[C@H](O)CO)c1ccc(F)c(F)c1Nc1ccc(I)cc1F
- % of control [17]: 100%
- % of control [18]: 100%

— ChEMBL document CHEMBL5465560, “Selectivity Literature for EUbOPEN Chemogenomic Library” (2024)
